# Assay results taken from publication PMC8160875 (Molecules, 2021).
# Experiments:
# A549 cells = assay: MTT cytotoxicity assay, A549; format: cell-based; conditions: Homo sapiens, A549 cell line, average of three determinations
# Source text: (§1) Four human tumor cell lines (A549, H1975, NCI-H460, and MCF-7) and human normal cell line LO2 were selected to evaluate the antiproliferative activity of all target compounds in vitro. Olmutinib was used as a positive control. Results are summarized in Table 1, where the values are the average of at least three independent experiments. […] However, the antiproliferative activities of the compounds that were substituted with the anisidine side chain performed better than the cyano group chain.
# H1975 cells = assay: MTT cytotoxicity assay, H1975; format: cell-based; conditions: Homo sapiens, NCI-H1975, H1975 cell line, average of three determinations
# Source text: as §1
# NCI-H460 cells = assay: MTT cytotoxicity assay, NCI-H460; format: cell-based; conditions: Homo sapiens, NCI-H460 cell line, average of three determinations
# Source text: as §1
# MCF-7 cells = assay: MTT cytotoxicity assay, MCF-7; format: cell-based; conditions: Homo sapiens, MCF7, MCF-7 cell line, average of three determinations
# Source text: as §1
# LO2 cells = assay: MTT cytotoxicity assay, normal cell line LO2; format: cell-based, human; conditions: for IC50: L02, human normal cell line LO2, MTT, average of three determinations; for Selectivity IC50(LO2)/IC50(A549): ratio IC50(LO2)/IC50(A549)
# Source text: as §1
# PI3Kα = PI3Kα (Homo sapiens, UniProt P42336); assay: Kinase-Glo Luminescent Kinase Assay, PI3Kα; format: biochemical; conditions: average of three determinations
# Experimental: Compounds H7 and H10 had excellent antiproliferative activity and were further screened out for kinase inhibition testing. We evaluated compounds H7 and H10 with EGFR^T790M/L858R kinases and PI3Kα kinases.
# The specific operation was carried out according to our previous research.
# [1] = tested on: HCC827 (EGFR^dell19) cells; conditions: quoted in the introduction; read-out: IC50 against HCC827 (EGFR^dell19) cells; cited from earlier work
# [2] = tested on: H1975 (EGFR^L858R/T790M) cells; conditions: quoted in the introduction; read-out: IC50 against H1975 (EGFR^L858R/T790M) cells; cited from earlier work
# A549 (EGFR^WT) cells = conditions: quoted in the introduction; read-out: IC50 against A549 (EGFR^WT) cells; cited from earlier work
# [3] = quoted in the introduction; cited from earlier work
# EGFR^T790M/L858R = EGFR^T790M/L858R (Homo sapiens, UniProt P00533, L858R/T790M); assay: Kinase-Glo Luminescent Kinase Assay, EGFR T790M/L858R; format: biochemical; conditions: average of three determinations
# EGFR^T790M/L858R, sequence (P00533 25-1210 T790M/L858R): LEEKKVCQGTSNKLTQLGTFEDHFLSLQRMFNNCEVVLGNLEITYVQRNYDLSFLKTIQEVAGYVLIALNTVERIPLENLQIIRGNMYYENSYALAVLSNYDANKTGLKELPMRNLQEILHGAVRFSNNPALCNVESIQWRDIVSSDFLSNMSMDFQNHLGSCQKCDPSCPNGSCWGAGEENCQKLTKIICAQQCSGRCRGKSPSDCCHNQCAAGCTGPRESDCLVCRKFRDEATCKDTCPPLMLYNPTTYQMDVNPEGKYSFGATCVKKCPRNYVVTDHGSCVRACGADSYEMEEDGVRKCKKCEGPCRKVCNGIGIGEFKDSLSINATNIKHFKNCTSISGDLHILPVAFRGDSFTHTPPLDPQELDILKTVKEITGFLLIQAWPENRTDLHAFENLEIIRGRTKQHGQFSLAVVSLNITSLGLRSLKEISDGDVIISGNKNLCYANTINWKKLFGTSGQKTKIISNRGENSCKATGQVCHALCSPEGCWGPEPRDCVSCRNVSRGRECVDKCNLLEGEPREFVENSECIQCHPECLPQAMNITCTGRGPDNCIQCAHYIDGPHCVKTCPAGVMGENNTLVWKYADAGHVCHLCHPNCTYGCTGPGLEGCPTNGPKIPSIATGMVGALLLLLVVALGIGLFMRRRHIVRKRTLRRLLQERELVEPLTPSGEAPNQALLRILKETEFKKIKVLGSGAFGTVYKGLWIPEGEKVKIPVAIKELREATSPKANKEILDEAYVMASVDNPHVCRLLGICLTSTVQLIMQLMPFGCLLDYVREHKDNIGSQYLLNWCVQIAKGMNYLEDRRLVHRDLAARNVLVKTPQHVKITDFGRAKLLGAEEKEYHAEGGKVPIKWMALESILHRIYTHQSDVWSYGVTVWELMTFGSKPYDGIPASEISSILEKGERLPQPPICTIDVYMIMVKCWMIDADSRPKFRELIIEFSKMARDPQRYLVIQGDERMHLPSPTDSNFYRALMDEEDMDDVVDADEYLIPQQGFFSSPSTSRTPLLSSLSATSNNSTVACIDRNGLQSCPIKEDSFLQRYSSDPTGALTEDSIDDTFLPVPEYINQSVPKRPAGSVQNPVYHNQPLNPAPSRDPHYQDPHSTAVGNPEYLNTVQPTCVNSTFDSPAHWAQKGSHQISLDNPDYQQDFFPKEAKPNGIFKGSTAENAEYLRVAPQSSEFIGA
# PI3Kα, sequence (P42336 whole entry): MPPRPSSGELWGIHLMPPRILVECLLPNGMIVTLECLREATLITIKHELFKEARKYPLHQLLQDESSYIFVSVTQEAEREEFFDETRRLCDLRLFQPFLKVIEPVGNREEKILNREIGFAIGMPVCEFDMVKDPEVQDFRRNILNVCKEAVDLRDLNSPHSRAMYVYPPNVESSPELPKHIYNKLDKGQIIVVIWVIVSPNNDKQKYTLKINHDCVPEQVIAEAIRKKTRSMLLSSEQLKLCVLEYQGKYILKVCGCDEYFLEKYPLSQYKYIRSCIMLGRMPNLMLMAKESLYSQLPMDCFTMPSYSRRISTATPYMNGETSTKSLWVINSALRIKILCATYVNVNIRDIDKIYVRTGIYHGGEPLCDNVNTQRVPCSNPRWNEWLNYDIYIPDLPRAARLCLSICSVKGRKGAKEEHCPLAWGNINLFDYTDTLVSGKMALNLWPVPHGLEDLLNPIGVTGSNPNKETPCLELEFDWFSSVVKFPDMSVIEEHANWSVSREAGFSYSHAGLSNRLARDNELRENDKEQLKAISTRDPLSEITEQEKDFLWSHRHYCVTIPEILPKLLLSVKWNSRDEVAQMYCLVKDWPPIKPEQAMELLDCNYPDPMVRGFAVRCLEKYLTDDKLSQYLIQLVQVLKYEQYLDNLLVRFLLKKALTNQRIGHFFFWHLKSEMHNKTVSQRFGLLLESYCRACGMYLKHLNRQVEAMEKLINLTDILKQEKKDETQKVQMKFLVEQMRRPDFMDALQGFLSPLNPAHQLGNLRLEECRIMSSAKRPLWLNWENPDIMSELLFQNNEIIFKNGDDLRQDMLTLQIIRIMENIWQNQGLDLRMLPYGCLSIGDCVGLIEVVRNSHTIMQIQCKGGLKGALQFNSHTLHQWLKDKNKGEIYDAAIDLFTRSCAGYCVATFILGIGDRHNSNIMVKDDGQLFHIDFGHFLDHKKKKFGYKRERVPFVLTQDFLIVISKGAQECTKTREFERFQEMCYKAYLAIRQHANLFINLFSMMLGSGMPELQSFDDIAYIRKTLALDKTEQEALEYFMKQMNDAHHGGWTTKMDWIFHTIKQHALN
# PI3Kα, sequence (P27986 whole entry partner): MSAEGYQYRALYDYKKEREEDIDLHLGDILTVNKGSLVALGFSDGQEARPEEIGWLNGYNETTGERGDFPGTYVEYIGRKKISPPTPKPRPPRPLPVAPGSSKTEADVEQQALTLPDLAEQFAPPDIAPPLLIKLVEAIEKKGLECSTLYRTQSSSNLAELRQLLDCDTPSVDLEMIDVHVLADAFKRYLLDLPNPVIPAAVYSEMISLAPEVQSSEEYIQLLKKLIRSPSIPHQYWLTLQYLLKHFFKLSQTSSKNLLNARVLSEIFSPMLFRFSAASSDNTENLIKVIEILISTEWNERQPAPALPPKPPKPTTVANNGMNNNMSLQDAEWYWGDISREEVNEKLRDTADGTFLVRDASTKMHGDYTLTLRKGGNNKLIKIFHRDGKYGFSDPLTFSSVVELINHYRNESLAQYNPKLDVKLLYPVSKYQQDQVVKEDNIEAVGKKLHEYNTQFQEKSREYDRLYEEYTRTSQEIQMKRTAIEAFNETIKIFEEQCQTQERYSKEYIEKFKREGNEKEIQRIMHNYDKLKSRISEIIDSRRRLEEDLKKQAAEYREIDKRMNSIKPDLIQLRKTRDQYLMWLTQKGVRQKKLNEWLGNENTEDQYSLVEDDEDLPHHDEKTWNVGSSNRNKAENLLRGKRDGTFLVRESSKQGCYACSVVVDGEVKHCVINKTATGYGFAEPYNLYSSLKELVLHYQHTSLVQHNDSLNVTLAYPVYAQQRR
SMILES,melting point [°C],IC50 (PI3Kα) [µM],IC50 (EGFR^T790M/L858R) [nM],IC50 (A549 cells) [µM],IC50 (H1975 cells) [µM],IC50 (NCI-H460 cells) [µM],IC50 (MCF-7 cells) [µM],IC50 (LO2 cells) [µM],Selectivity IC50(LO2)/IC50(A549) (LO2 cells),IC50 [1] [nM],IC50 [2] [nM],IC50 (A549 (EGFR^WT) cells) [nM],toxic side effects [3],Selectivity (A549 vs LO2) relative to that of olmutinib (LO2 cells; fold of the selectivity of the lead compound olmutinib)
"C/C=C/C(=O)Nc1cccc(Oc2nc(-c3ccc(CN(CC)CC)s3)nc(N3CCOCC3)n2)c1 [Compound H14, (E)-N-(3-((4-(5-((diethylamino)methyl)thiophen-2-yl)-6-morpholino-1,3,5-triazin-2-yl)oxy)phenyl)but-2-enamide]",–,–,–,20.6 ± 2.3,17.8 ± 1.34,46.2 ± 1.43,41.6 ± 1.61,> 100,–,–,–,–,–,–
"C=C(C)C(=O)Nc1cccc(Oc2nc(-c3ccc(CN(CC)CC)s3)nc(N3CCOCC3)n2)c1 [Compound H13, N-(3-((4-(5-((diethylamino)methyl)thiophen-2-yl)-6-morpholino-1,3,5-triazin-2-yl)oxy)phenyl)methacrylamide]",–,–,–,23.4 ± 1.89,21.5 ± 1.21,54.5 ± 2.86,32.5 ± 1.73,> 100,–,–,–,–,–,–
"CC(C)/C=C/C(=O)Nc1cccc(Oc2nc(-c3ccc(CN(C)C)s3)nc(N3CCOCC3)n2)c1 [Compound H12, (E)-N-(3-((4-(5-((dimethylamino)methyl)thiophen-2-yl)-6-morpholino-1,3,5-triazin-2-yl)oxy)phenyl)-4-methylpent-2-enamide]",199.7 to 201.3,–,–,21.9 ± 1.54,13.6 ± 1.94,23.8 ± 2.05,64 ± 1.8,> 100,>4.57,–,–,–,–,–
"C=CC(=O)Nc1cccc(Oc2nc(-c3ccc(CN(C)C)s3)nc(N3CCOCC3)n2)c1 [Compound H9, N-(3-((4-(5-((dimethylamino)methyl)thiophen-2-yl)-6-morpholino-1,3,5-triazin-2-yl)oxy)phenyl)acrylamide]",–,–,–,23.5 ± 1.43,12.8 ± 1.25,28.2 ± 1.78,53.9 ± 1.73,> 100,–,–,–,–,–,–
"CCN(CC)Cc1ccc(-c2nc(Oc3cccc(NC(=O)C=C(C)C)c3)nc(N3CCOCC3)n2)s1 [Compound H15, N-(3-((4-(5-((diethylamino)methyl)thiophen-2-yl)-6-morpholino-1,3,5-triazin-2-yl)oxy)phenyl)-3-methylbut-2-enamide]",215.2 to 217.1,–,–,21.4 ± 1.58,19.5 ± 1.55,62.4 ± 2.94,38.5 ± 1.78,> 100,>4.68,–,–,–,–,–
"C=CC(=O)Nc1cccc(Oc2nc(Nc3ccc(N4CCN(C)CC4)cc3)nc3ccsc23)c1 [Olmutinib, olmutinib, reference compound]",–,> 10,–,4.29 ± 0.21,0.52 ± 0.1,5.29 ± 0.59,26.9 ± 0.93,25.8 ± 1.31,–,9.2,10,225,palmoplantar keratoderma and diarrhea,–
"C/C=C/C(=O)Nc1cccc(Oc2cc(-c3cccs3)nc(Nc3cccc(OC)c3)n2)c1 [Compound H7, (E)-N-(3-((2-((3-methoxyphenyl)amino)-6-(thiophen-2-yl)pyrimidin-4-yl)oxy)phenyl)but-2-enamide]",231.7 to 234.3,> 10,630,4.37 ± 0.5,4.59 ± 0.46,13.5 ± 0.52,19.2 ± 1.12,> 100,>22.88,–,–,–,–,–
"C=CC(=O)Nc1cccc(Oc2cc(-c3cccs3)nc(Nc3cccc(C#N)c3)n2)c1 [Compound H1, N-(3-((2-((3-cyanophenyl)amino)-6-(thiophen-2-yl)pyrimidin-4-yl)oxy)phenyl)acrylamide]",–,–,–,4.43 ± 0.5,9.64 ± 1.01,13.1 ± 1.17,19 ± 1.71,> 100,>22.57,–,–,–,–,–
"C/C=C/C(=O)Nc1cccc(Oc2nc(-c3ccc(CN(C)C)s3)nc(N3CCOCC3)n2)c1 [Compound H10, (E)-N-(3-((4-(5-((dimethylamino)methyl)thiophen-2-yl)-6-morpholino-1,3,5-triazin-2-yl)oxy)phenyl)but-2-enamide]",202.4 to 203.7,8.56,250,3.36 ± 1.59,1.16 ± 1.53,10.7 ± 2.02,13.1 ± 1.36,> 100,>29.76,–,–,–,–,about 5 times
"CCN(CC)Cc1ccc(-c2nc(Oc3cccc(NC(=O)/C=C/C(C)C)c3)nc(N3CCOCC3)n2)s1 [Compound H16, (E)-N-(3-((4-(5-((diethylamino)methyl)thiophen-2-yl)-6-morpholino-1,3,5-triazin-2-yl)oxy)phenyl)-4-methylpent-2-enamide]",–,–,–,36.1 ± 1.61,15.6 ± 2.55,30.3 ± 1.68,51.8 ± 1.27,> 100,>2.77,–,–,–,–,–
"CC(C)=CC(=O)Nc1cccc(Oc2nc(-c3ccc(CN(C)C)s3)nc(N3CCOCC3)n2)c1 [Compound H11, N-(3-((4-(5-((dimethylamino)methyl)thiophen-2-yl)-6-morpholino-1,3,5-triazin-2-yl)oxy)phenyl)-3-methylbut-2-enamide]",–,–,–,13.5 ± 1.13,5.57 ± 1.53,19.7 ± 1.16,25.8 ± 1.31,> 100,>7.39,–,–,–,–,–
"COc1cccc(Nc2nc(Oc3cccc(NC(=O)/C=C/C(C)C)c3)cc(-c3cccs3)n2)c1 [Compound H8, (E)-N-(3-((2-((3-methoxyphenyl)amino)-6-(thiophen-2-yl)pyrimidin-4-yl)oxy)phenyl)-4-methylpent-2-enamide]",217.9 to 219.1,–,–,19 ± 1.34,21.5 ± 1.21,24.1 ± 1.28,49.1 ± 2.13,> 100,>5.26,–,–,–,–,–

# Further lines, with some results ahead:
melting point [°C],IC50 (PI3Kα) [µM],IC50 (EGFR^T790M/L858R) [nM],SMILES,IC50 (A549 cells) [µM],IC50 (H1975 cells) [µM],IC50 (NCI-H460 cells) [µM],IC50 (MCF-7 cells) [µM],IC50 (LO2 cells) [µM],Selectivity IC50(LO2)/IC50(A549) (LO2 cells),IC50 [1] [nM],IC50 [2] [nM],IC50 (A549 (EGFR^WT) cells) [nM],toxic side effects [3],Selectivity (A549 vs LO2) relative to that of olmutinib (LO2 cells; fold of the selectivity of the lead compound olmutinib)
215.5 to 218.7,–,–,"CC(C)=CC(=O)Nc1cccc(Oc2cc(-c3cccs3)nc(Nc3cccc(C#N)c3)n2)c1 [Compound H3, N-(3-((2-((3-cyanophenyl)amino)-6-(thiophen-2-yl)pyrimidin-4-yl)oxy)phenyl)-3-methylbut-2-enamide]",27.7 ± 1.24,21.9 ± 1.33,25.8 ± 1.38,35.8 ± 1.64,> 100,>3.61,–,–,–,–,–
209.6 to 211.4,–,–,"CCC/C=C/C(=O)Nc1cccc(Oc2cc(-c3cccs3)nc(Nc3cccc(C#N)c3)n2)c1 [Compound H4, (E)-N-(3-((2-((3-cyanophenyl)amino)-6-(thiophen-2-yl)pyrimidin-4-yl)oxy)phenyl)hex-2-enamide]",37.1 ± 1.19,25.1 ± 1.3,23.4 ± 1.49,27 ± 1.63,> 100,>2.70,–,–,–,–,–
223.1 to 225.4,–,–,"CC(C)/C=C/C(=O)Nc1cccc(Oc2cc(-c3cccs3)nc(Nc3cccc(C#N)c3)n2)c1 [Compound H6, (E)-N-(3-((2-((3-cyanophenyl)amino)-6-(thiophen-2-yl)pyrimidin-4-yl)oxy)phenyl)-4-methylpent-2-enamide]",15.6 ± 0.81,11.9 ± 1.11,18.1 ± 0.71,17.7 ± 1.01,> 100,>6.43,–,–,–,–,–
201.2 to 205.9,–,–,"C/C=C/C(=O)Nc1cccc(Oc2cc(-c3cccs3)nc(Nc3cccc(C#N)c3)n2)c1 [Compound H2, (E)-N-(3-((2-((3-cyanophenyl)amino)-6-(thiophen-2-yl)pyrimidin-4-yl)oxy)phenyl)but-2-enamide]",10.5 ± 1.17,12.5 ± 1.09,16.4 ± 0.98,14.6 ± 1.19,87.9 ± 1.67,8.38,–,–,–,–,–
222.9 to 226.8,–,–,"C=C(F)C(=O)Nc1cccc(Oc2cc(-c3cccs3)nc(Nc3cccc(C#N)c3)n2)c1 [Compound H5, N-(3-((2-((3-cyanophenyl)amino)-6-(thiophen-2-yl)pyrimidin-4-yl)oxy)phenyl)-2-fluoroacrylamide]",> 100,> 100,> 100,> 100,> 100,–,–,–,–,–,–
